Here are results for 1 compound from ChEMBL document CHEMBL2311511, “Dipeptide cis-cyclo(Leucyl-Tyrosyl) produced by sponge associated Penicillium sp. F37 inhibits biofilm formation of the pathogenic Staphylococcus epidermidis” (Bioorg Med Chem Lett, 2013).

Series [1] concerns Staphylococcus epidermidis. Nature of the series: Inhibition of Staphylococcus epidermidis ATCC 35984 biofilm formation at 1 mg/ml after 24 hrs by scanning electron microscopy. It counts as functional, organism-based.
The subject of series [2] is Staphylococcus epidermidis. The experiment in a line: Inhibition of Staphylococcus epidermidis ATCC 35984 biofilm formation at 0.125 mg/ml. It counts as functional, organism-based.
Series [3] has as its system Staphylococcus epidermidis. Nature of the series: Toxicity in Staphylococcus epidermidis ATCC 35984 assessed as growth inhibition at 0.25 to 1 mg/ml. The series is classed as organism-based. To be noted: in vivo.
Series [4] has as its system Staphylococcus epidermidis. Nature of the series: Inhibition of Staphylococcus epidermidis ATCC 35984 biofilm formation at 1 mg/ml. It counts as functional.
The test system of series [5] is Staphylococcus epidermidis. The experiment in a line: Inhibition of Staphylococcus epidermidis ATCC 35984 biofilm formation at 0.5 mg/ml. It counts as functional.
For series [6], the system named is Staphylococcus epidermidis. The experiment in a line: Inhibition of Staphylococcus epidermidis ATCC 35984 biofilm formation at 0.25 mg/ml. It counts as functional.

Calls of active or inactive are those of the source. The calls are words filed in the database; no cut-off is given here.

As for `CC(C)C[C@@H]1NC(=O)[C@H](Cc2ccc(O)cc2)NC1=O`, the inhibition result in series [1] is “Active”. In addition, the result in series [2] was inactive. In addition, in series [3], the Activity entry was “Non-toxic”. The inhibition at 1000 µg/mL in series [4] amounted to 85%. Also, the inhibition at 500 µg/mL in series [5] turned out to be 65%. The compound further came in with an inhibition at 250 µg/mL in series [6] of 60%.
